In one assay the test system is MDA-MB-231. Description: Cytotoxicity against human MDA-MB-231 cells after 48 hrs by MTT assay. Type of assay: functional, cell-based. The following applies: MDA-MB-231, 48 h. (Tetrazolium assays rely on reduction of a dye to a coloured formazan, in cell work by metabolically active cells.)
The nature of assay [1]: Cytotoxicity against human DLD1 cells after 48 hrs by MTT assay. Type of assay: functional, cell-based. The following applies: DLD-1, 48 h.
For a further assay, the system named is HUVEC. Description: Cytotoxicity against HUVEC cells after 48 hrs by MTT assay. Type of assay: cell-based. The settings on record: Homo sapiens.
Assay [2] in a line: Cytotoxicity against human HCT116 cells after 48 hrs by MTT assay. The assay is classed as functional, cell-based. The settings on record: HCT-116, 48 h.

`Nc1nc(-c2ccccc2)cn1/N=C/c1cc2ccccc2nc1Cl`: the IC50 (usually the concentration needed to halve the response being measured) was 49 µM in the assay on MDA-MB-231, 16.4 µM in assay [1], 46.7 µM in the assay with HUVEC and 6.92 µM in assay [2].
For `Cc1ccc(-c2cn(/N=C/c3cc4ccccc4nc3Cl)c(N)n2)cc1` the same measures were > 50 µM, > 50 µM, > 50 µM and > 50 µM.
Take `COc1ccc(-c2cn(/N=C/c3cc4ccccc4nc3Cl)c(N)n2)cc1`: the IC50 with MDA-MB-231 was > 50 µM; in assay [1] it was > 50 µM; in the assay with HUVEC, 12.4 µM; in assay [2], 31.8 µM.
In the case of `Nc1nc(-c2ccc(Cl)cc2)cn1/N=C/c1cc2ccccc2nc1Cl`, the IC50 is > 50 µM in the assay on MDA-MB-231, > 50 µM in assay [1], 28 µM with HUVEC and > 50 µM in assay [2].
Turning to `Nc1nc(-c2ccc(Br)cc2)cn1/N=C/c1cc2ccccc2nc1Cl`, the IC50 with MDA-MB-231 was > 50 µM; in assay [1], 23.9 µM; in the assay with HUVEC, 11.9 µM; in assay [2] it was > 50 µM.
Turning to `Cc1ccc2nc(Cl)c(/C=N/n3cc(-c4ccccc4)nc3N)cc2c1`, the IC50 with MDA-MB-231 was 48.1 µM; in assay [1], 8.79 µM; in the assay with HUVEC, 41.5 µM; in assay [2], 7.12 µM.
As for `Cc1ccc(-c2cn(/N=C/c3cc4cc(C)ccc4nc3Cl)c(N)n2)cc1`, the IC50 was 22.3 µM in the assay on MDA-MB-231, 25.2 µM in assay [1], 18 µM in the assay on HUVEC and 39.6 µM in assay [2].
As to `COc1ccc(-c2cn(/N=C/c3cc4cc(C)ccc4nc3Cl)c(N)n2)cc1`, the IC50 in the assay with MDA-MB-231 is 23.6 µM; in assay [1], 25.7 µM; in the assay with HUVEC, 12.2 µM; in assay [2] it was > 50 µM.
Regarding `Cc1ccc2nc(Cl)c(/C=N/n3cc(-c4ccc(Cl)cc4)nc3N)cc2c1`, the IC50 in the assay on MDA-MB-231 was 35.2 µM; in assay [1], 38.9 µM; with HUVEC it was 38.5 µM; in assay [2] it was > 50 µM.
Take `Cc1ccc2nc(Cl)c(/C=N/n3cc(-c4ccc(Br)cc4)nc3N)cc2c1`: the IC50 with MDA-MB-231 is 38.2 µM; in assay [1], 39.3 µM; in the assay on HUVEC it was 13.4 µM; in assay [2], 49.9 µM.
As for `Nc1nc(-c2cccc3ccccc23)cn1/N=C/c1cc2ccccc2nc1Cl`, the IC50 was > 50 µM in the assay with MDA-MB-231, 9.48 µM in assay [1], > 50 µM in the assay on HUVEC and 6.34 µM in assay [2].
With `Nc1nc(-c2ccc3ccccc3c2)cn1/N=C/c1cc2ccccc2nc1Cl`, the IC50 in the assay on MDA-MB-231 is > 50 µM; in assay [1], > 50 µM; in the assay on HUVEC, 36.2 µM; in assay [2] it was > 50 µM.
For `Cc1ccc2nc(Cl)c(/C=N/n3cc(-c4cccc5ccccc45)nc3N)cc2c1`, the IC50 in the assay with MDA-MB-231 is > 50 µM; in assay [1], 8.3 µM; with HUVEC it was 9.58 µM; in assay [2], 5.84 µM.
For the compound `Cc1ccc2nc(Cl)c(/C=N/n3cc(-c4ccc5ccccc5c4)nc3N)cc2c1`, the IC50 amounted to 35.6 µM in the assay on MDA-MB-231, 10.2 µM in assay [1], 11.3 µM with HUVEC and 27.4 µM in assay [2].
Take `Nc1nc(-c2cccs2)cn1/N=C/c1cc2ccccc2nc1Cl`: the IC50 in the assay on MDA-MB-231 was > 50 µM; in assay [1], 10.3 µM; in the assay on HUVEC, 10.2 µM; in assay [2] it was 7.22 µM.
Take `Cc1ccc2nc(Cl)c(/C=N/n3cc(-c4cccs4)nc3N)cc2c1`: the IC50 in the assay on MDA-MB-231 is > 50 µM; in assay [1], 8.99 µM; in the assay with HUVEC it was 38 µM; in assay [2], 7.71 µM.
In the case of `COc1cccc2c1C(=O)c1c(O)c3c(c(O)c1C2=O)C[C@@](O)(C(=O)CO)C[C@@H]3O[C@H]1C[C@H](N)[C@H](O)[C@H](C)O1` [DOXORUBICIN], the IC50 with MDA-MB-231 was found to be 1.47 µM; in assay [1] it was 0.84 µM; in assay [2] it was 0.34 µM.

These data come from ChEMBL document CHEMBL3351640, “Design, regioselective synthesis and cytotoxic evaluation of 2-aminoimidazole-quinoline hybrids against cancer and primary endothelial cells” (Eur J Med Chem, 2014).
